The target in this experiment is recombinant human nicotinic acid receptor (NAR) (Homo sapiens, UniProt Q8TDS4). Briefly: Nicotinic acid receptor assay: inhibition of forskolin-stimulated cAMP accumulation (MesoScale Discovery cAMP detection kit) in CHO cells. The settings on record: CHO cells expressing recombinant human NAR, activity class, read-out: NA EC50 camp. The format is cell-based. How it is done: The nicotinic acid receptor agonist activity of the inventive compounds was determined by following the inhibition of forskolin-stimulated cAMP accumulation in cells using the MesoScale Discovery cAMP detection kit following the manufacturer's protocol. Briefly, Chinese Hamster Ovary (CHO) cells expressing recombinant human nicotinic acid receptor (NAR) were harvested enzymatically, washed 1× in phosphate buffered saline (PBS) and resuspended in PBS containing 0.5 mM IBMX at 3×10^6 cells/mL. Ten μL of cell suspension was added to each well of a 384-well plate which contained 10 μL of test compounds. Test compounds were diluted with PBS containing 6 μM of forskolin. Plates were incubated for 30 minutes at room temperature after the addition of cells. Lysis buffer containing cAMP-Tag was added to each well (10 μL/well) as per the manufacturer's protocol. Plates were then incubated from 45 minutes to overnight. Prior to reading, 10 μt of read buffer was added to each well, and the plate was read in a Sector 6000 plate imager. The signal was converted to cAMP concentration using a standard curve run on each plate. Compound EC50 values were determined from concentration gradients of test compounds.
Chain of recombinant human nicotinic acid receptor (NAR) (Q8TDS4 whole entry): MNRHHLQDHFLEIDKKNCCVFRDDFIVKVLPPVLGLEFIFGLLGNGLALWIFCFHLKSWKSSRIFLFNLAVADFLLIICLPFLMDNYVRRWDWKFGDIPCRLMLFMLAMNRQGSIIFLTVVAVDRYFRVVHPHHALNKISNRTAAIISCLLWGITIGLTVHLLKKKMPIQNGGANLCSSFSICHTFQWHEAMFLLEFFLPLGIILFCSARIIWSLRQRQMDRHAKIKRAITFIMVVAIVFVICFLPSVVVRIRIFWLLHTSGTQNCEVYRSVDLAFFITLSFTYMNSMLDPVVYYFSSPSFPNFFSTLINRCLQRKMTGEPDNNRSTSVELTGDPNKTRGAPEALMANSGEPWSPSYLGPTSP
A general note: Changes in cAMP serve as a functional read-out for many G protein-coupled receptors.

SMILES strings stand for the structures.

As to `O=c1[nH]c(=O)c2c(Cc3cccc(Br)c3)cc(=O)oc2[nH]1` [Compound 238], the EC50 (as a rule, the concentration at which the effect is half-maximal) fell in the range of 100 to 1000 nM.

Source of the values: US20100227873A1, “NITROGEN-CONTAINING HETEROCYCLIC COMPOUNDS AND METHODS OF USE THEREOF” (Schering Corporation, priority 2005, published 2010).
